Laboratory results taken from patent publication US20240025906A1 (NEURON23, INC., priority 2022, published 2024).

Key:
TYK2 JH2 = target: T1, TYK2 JH2 (Homo sapiens, UniProt P29597); assay: TYK2 JH2 binding assay (KINOMEscan KdELECT competitive binding); details: TYK2 JH2 domain, KINOMEscan KdELECT (Assay A); read-out: Biochemical TYK2_DiscoverX_JH2_BND_Kd
T1 construct: purchased DiscoverX (KINOMEscan KdELECT service); host or cells: E. coli BL21-derived (T7 phage display) or HEK-293
In short: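 JH2-domain fragment, expressed as T7 phage tag in BL21-derived E. coli or DNA-tagged from HEK-293, competed with test compound against bead-immobilized biotinylated ligand in binding buffer (0.9% DMSO). 1 h shaking at room temperature; bound kinase eluted with 0.5 μM free ligand and quantified by qPCR. Kd from 11-point 3-fold dilutions.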

[1] = system: JAK1/TYK2 pSTAT5 (Tyr694/699) in THP-1 cell line; assay: IFNa-stimulated JAK1/TYK2 pSTAT5 (Tyr694/699) inhibition cellular assay, AlphaLISA; format: cell-based; details: Homo sapiens; THP-1 cells, IFNa-stimulated, AlphaLISA (Assay B); read-out: Cellular_THP1_IFNa-pSTATS_TYK2
In short: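 THP-1, 2e4 cells/well, HBSS; cpd 1 h 37 °C (10000–0.04 nM final, 6-fold, 8 pt); IFNa 100 ng/mL added, 30 min; lyse, freeze −80 °C; pSTAT5 AlphaLISA, 615 nm; 4PL IC50, bottom fixed 0, slope −1.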

T1 sequence (P29597 589-875 limits assumed): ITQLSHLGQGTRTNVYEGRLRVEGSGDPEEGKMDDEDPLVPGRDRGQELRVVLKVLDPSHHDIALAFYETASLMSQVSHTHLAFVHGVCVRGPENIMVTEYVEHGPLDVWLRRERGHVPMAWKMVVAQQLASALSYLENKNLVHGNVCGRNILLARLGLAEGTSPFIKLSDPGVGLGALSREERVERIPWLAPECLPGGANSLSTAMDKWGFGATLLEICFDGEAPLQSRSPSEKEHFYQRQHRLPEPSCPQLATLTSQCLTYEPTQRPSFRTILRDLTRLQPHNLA

SMILES: CNc1ncc(C#Cc2ccc(OC)cc2Cl)c2cc(NC(=O)C3CC3)ncc12 [Example 635, N-(5-((2-chloro-4-methoxyphenyl)ethynyl)-8-(methylamino)-2,7-naphthyridin-3-yl)cyclopropanecarboxamide]
- Kd (TYK2 JH2): ≤ 100 nM
- IC50 [1]: ≤ 500 nM

SMILES: CNc1ncc(C#Cc2c(Cl)cc(OC)cc2Cl)c2cc(NC(=O)C3CC3)ncc12 [Example 636, N-(5-((2,6-dichloro-4-methoxyphenyl)ethynyl)-8-(methylamino)-2,7-naphthyridin-3-yl)cyclopropanecarboxamide]
- Kd (TYK2 JH2): ≤ 100 nM
- IC50 [1]: > 500 nM

SMILES: CNc1ncc(C#Cc2ccc(S(=O)(=O)C3CC3)cc2)c2cc(NC(=O)C3CC3)ncc12 [Example 637, N-(5-((4-(cyclopropylsulfonyl)phenyl)ethynyl)-8-(methylamino)-2,7-naphthyridin-3-yl)cyclopropanecarboxamide]
- Kd (TYK2 JH2): ≤ 100 nM
- IC50 [1]: ≤ 500 nM

SMILES: CNc1ncc(C#Cc2ccc(OC3CC3)cc2)c2cc(NC(=O)C3CC3)ncc12 [Example 638, N-(5-((4-cyclopropoxyphenyl)ethynyl)-8-(methylamino)-2,7-naphthyridin-3-yl)cyclopropanecarboxamide]
- Kd (TYK2 JH2): ≤ 100 nM
- IC50 [1]: ≤ 500 nM

SMILES: CNc1ncc(C#Cc2ccc(N3CCOCC3)cc2C)c2cc(NC(=O)C3CC3)ncc12 [Example 639, N-(5-((2-methyl-4-morpholinophenyl)ethynyl)-8-(methylamino)-2,7-naphthyridin-3-yl)cyclopropanecarboxamide]
- Kd (TYK2 JH2): ≤ 100 nM
- IC50 [1]: ≤ 500 nM

SMILES: CNc1ncc(C#Cc2ccc(S(C)(=O)=O)cn2)c2cc(NC(=O)C3CC3)ncc12 [Example 640, N-(8-(methylamino)-5-((5-(methylsulfonyl)pyridin-2-yl)ethynyl)-2,7-naphthyridin-3-yl)cyclopropanecarboxamide]
- Kd (TYK2 JH2): ≤ 100 nM
- IC50 [1]: ≤ 500 nM

SMILES: CNc1ncc(C#Cc2cccnn2)c2cc(NC(=O)C3CC3)ncc12 [Example 641, N-(8-(methylamino)-5-(pyridazin-3-ylethynyl)-2,7-naphthyridin-3-yl)cyclopropanecarboxamide]
- Kd (TYK2 JH2): ≤ 100 nM
- IC50 [1]: ≤ 500 nM

SMILES: CNc1ncc(C#Cc2ccc3oc(CO)cc3c2)c2cc(NC(=O)C3CC3)ncc12 [Example 642, N-(5-((2-(hydroxymethyl)benzofuran-5-yl)ethynyl)-8-(methylamino)-2,7-naphthyridin-3-yl)cyclopropanecarboxamide]
- Kd (TYK2 JH2): ≤ 100 nM
- IC50 [1]: ≤ 500 nM

SMILES: CNc1ncc(C#Cc2ncc(OC)cc2Cl)c2cc(NC(=O)C3CC3)ncc12 [Example 643, N-(5-((3-chloro-5-methoxypyridin-2-yl)ethynyl)-8-(methylamino)-2,7-naphthyridin-3-yl)cyclopropanecarboxamide]
- Kd (TYK2 JH2): ≤ 100 nM
- IC50 [1]: ≤ 500 nM

SMILES: CNc1ncc(C#Cc2ccc(OC(F)(F)F)cn2)c2cc(NC(=O)C3CC3)ncc12 [Example 644, N-(8-(methylamino)-5-((5-(trifluoromethoxy)pyridin-2-yl)ethynyl)-2,7-naphthyridin-3-yl)cyclopropanecarboxamide]
- Kd (TYK2 JH2): ≤ 100 nM
- IC50 [1]: ≤ 500 nM

SMILES: CNc1ncc(C#Cc2ccc(OC(F)F)cn2)c2cc(NC(=O)C3CC3)ncc12 [Example 645, N-(5-((5-(difluoromethoxy)pyridin-2-yl)ethynyl)-8-(methylamino)-2,7-naphthyridin-3-yl)cyclopropanecarboxamide]
- Kd (TYK2 JH2): ≤ 100 nM
- IC50 [1]: ≤ 500 nM

SMILES: CNc1ncc(C#Cc2ccncc2C(F)(F)F)c2cc(NC(=O)C3CC3)ncc12 [Example 646, N-(8-(methylamino)-5-((3-(trifluoromethyl)pyridin-4-yl)ethynyl)-2,7-naphthyridin-3-yl)cyclopropanecarboxamide]
- Kd (TYK2 JH2): ≤ 100 nM
- IC50 [1]: ≤ 500 nM

SMILES: CNc1ncc(C#Cc2ccc3nc(C)n(C)c3c2)c2cc(NC(=O)C3CC3)ncc12 [Example 647, N-(5-((1,2-dimethyl-1H-benzo[d]imidazol-6-yl)ethynyl)-8-(methylamino)-2,7-naphthyridin-3-yl)cyclopropanecarboxamide]
- Kd (TYK2 JH2): ≤ 100 nM
- IC50 [1]: ≤ 500 nM
